The values below come from paper PMC4278837, “A Cyclic Peptidic Serine Protease Inhibitor: Increasing Affinity by Increasing Peptide Flexibility” (PLoS ONE, 2014).

The target in experiment [1] is T1, huPA-H99Y (Homo sapiens, UniProt P00749, H272Y).
T1 construct: To ensure that the uPAs purified from the conditioned media were completely in the two-chain form, they were treated with plasmin; hexa-His (C); made in house; host or cells: HEK293 6E suspension cells
In words: Surface plasmon resonance analysis of peptide binding to huPA-H99Y. Conditions: SPR. The method, then:
(§1) Surface plasmon resonance (SPR) analysis
(§2) To determine the equilibrium binding constants (KD), the association rate constants (kon) and dissociation rate constants (koff) for peptide binding to uPA, surface plasmon resonance analysis was performed on a Biacore T200 instrument (Biacore, Uppsala, Sweden). A CM5 chip was coupled with the uPA variant (muPA or huPAH99Y) to be analysed, by injecting a concentration of 30 µg/mL uPA in immobilization buffer (10 mM sodium acetate, pH 5.0), aiming for an immobilised level of approximately 500 response units (RU). Immobilisation was followed by surface blocking with ethanolamine. A reference cell was prepared in the same way, without coupling of uPA. Mupain-1 variants in HBS with 0.1% BSA, in a dilution series, were injected at a flow rate of 30 µL per min during 60 s at 25°C. Subsequently, the dissociation was monitored during 600 s. Kinetic constants (k on and k off) were calculated with the Biacore Evaluation Software, using the 1∶1 kinetic fit. The K D values were calculated as k off /k on.

In a further experiment the target is T2, muPA (Mus musculus, UniProt P06869).
T2 construct: To ensure that the uPAs purified from the conditioned media were completely in the two-chain form, they were treated with plasmin; hexa-His (C); made in house; host or cells: HEK293 6E suspension cells
T2 sequence (P06869 180-433 limits assumed): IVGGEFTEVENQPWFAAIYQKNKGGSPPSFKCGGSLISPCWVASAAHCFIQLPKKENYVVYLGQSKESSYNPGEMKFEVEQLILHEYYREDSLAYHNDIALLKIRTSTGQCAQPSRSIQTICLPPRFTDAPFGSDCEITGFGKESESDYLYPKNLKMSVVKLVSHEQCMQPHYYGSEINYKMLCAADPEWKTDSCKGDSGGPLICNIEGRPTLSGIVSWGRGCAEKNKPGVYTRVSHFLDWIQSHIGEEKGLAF
T2 sequence (P06869 21-178 partner limits assumed): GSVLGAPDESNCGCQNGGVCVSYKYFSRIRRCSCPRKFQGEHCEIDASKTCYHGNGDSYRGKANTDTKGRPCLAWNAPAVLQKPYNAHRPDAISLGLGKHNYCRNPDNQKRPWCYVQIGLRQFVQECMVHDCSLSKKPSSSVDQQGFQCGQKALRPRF
The experiment can be described thus: Surface plasmon resonance analysis of peptide binding to muPA. Set-up: species or system murine. Conditions: SPR, 25°C, pH 7.4. As for the experimental part: as §1, §2
In general terms: In SPR one partner is held on a chip, and binding of the other changes the refractive index at the surface.

In the next experiment the target is T3, huPA-H99Y K143A (Homo sapiens, UniProt P00749, H272Y/K320A).
T3 construct: To ensure that the uPAs purified from the conditioned media were completely in the two-chain form, they were treated with plasmin; hexa-His (C); made in house; host or cells: HEK293 6E suspension cells
In words: Ki for inhibition of huPA-H99Y-K143A, chromogenic substrate. Particulars: 37°C; means ± S.D.; read-out: K i for inhibition of huPA-H99Y-K143A. Format: biochemical. The text has this:
(§3) Determination of Ki values
(§4) The initial reaction velocities were monitored at an absorbance of 405 nm. The inhibition constants (K i) were subsequently determined from the non-linear regression analyses of plots for V i/V o versus [I]0, using Equation 2, derived under assumption of competitive inhibition:
(§5) [drawing 2] (2) where V i and V 0 are the reaction velocities in the presence and absence of inhibitor, respectively; [S]0 and [I]0 are the substrate and inhibitor concentrations, respectively; K M is K M for substrate hydrolysis by each protease. In Equation 2, it is assumed that [S]free ≈ [S]0 and [I]free ≈ [I]0.

In the next experiment the target is T4, huPA-H99Y R35A (Homo sapiens, UniProt P00749, H272Y/R198A).
T4 construct: To ensure that the uPAs purified from the conditioned media were completely in the two-chain form, they were treated with plasmin; hexa-His (C); made in house; host or cells: HEK293 6E suspension cells
In words: Ki for inhibition of huPA-H99Y-R35A, chromogenic substrate. Type of experiment: biochemical. Conditions: 37°C; means ± S.D.; read-out: K i for inhibition of huPA-H99Y-R35A.
Text: as §3, §4, §5

The next experiment addresses T5, muPA K143A (Mus musculus, UniProt P06869, K322A).
T5 construct: To ensure that the uPAs purified from the conditioned media were completely in the two-chain form, they were treated with plasmin; hexa-His (C); made in house; host or cells: HEK293 6E suspension cells
In words: Ki for inhibition of muPA-K143A, chromogenic substrate. Format: biochemical, murine. Conditions: means ± S.D.; read-out: K i for inhibition of muPA-K143A.
Text: as §3, §4, §5

In another experiment the target is T6, muPA V213T (Mus musculus, UniProt P06869, V396T).
T6 construct: To ensure that the uPAs purified from the conditioned media were completely in the two-chain form, they were treated with plasmin; hexa-His (C); made in house; host or cells: HEK293 6E suspension cells
T6 sequence (P06869 180-433 V396T): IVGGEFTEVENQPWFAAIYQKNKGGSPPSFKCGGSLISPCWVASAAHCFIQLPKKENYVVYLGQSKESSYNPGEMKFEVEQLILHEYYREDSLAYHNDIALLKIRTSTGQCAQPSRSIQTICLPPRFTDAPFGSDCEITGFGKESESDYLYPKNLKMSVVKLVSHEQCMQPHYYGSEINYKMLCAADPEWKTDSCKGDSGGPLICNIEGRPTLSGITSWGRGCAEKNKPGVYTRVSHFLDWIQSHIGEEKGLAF
T6 sequence (P06869 21-178 partner limits assumed): as the sequence (P06869 21-178 partner limits assumed) above
The experiment can be described thus: Ki for inhibition of muPA-V213T, chromogenic substrate. Type of experiment: biochemical, murine. Conditions: means ± S.D.; read-out: K i for inhibition of muPA-V213T.
Text: as §3, §4, §5

The next experiment deals with huPA-H99Y Q192A (Homo sapiens, UniProt P00749, H272Y/Q373A). The experiment can be described thus: Ki for inhibition of huPA-H99Y-Q192A, chromogenic substrate. Type of experiment: biochemical. More on the design: To ensure that the uPAs purified from the conditioned media were completely in the two-chain form, they were treated with plasmin; hexa-His (C); made in house; host or cells: HEK293 6E suspension cells. Particulars: 37°C; means ± S.D.; read-out: K i for inhibition of huPA-H99Y-Q192A.
Text: as §3, §4, §5

In the next experiment the target is T7, muPA S190A (Mus musculus, UniProt P06869, S373A).
T7 construct: To ensure that the uPAs purified from the conditioned media were completely in the two-chain form, they were treated with plasmin; hexa-His (C); made in house; host or cells: HEK293 6E suspension cells
T7 sequence (P06869 180-433 S373A): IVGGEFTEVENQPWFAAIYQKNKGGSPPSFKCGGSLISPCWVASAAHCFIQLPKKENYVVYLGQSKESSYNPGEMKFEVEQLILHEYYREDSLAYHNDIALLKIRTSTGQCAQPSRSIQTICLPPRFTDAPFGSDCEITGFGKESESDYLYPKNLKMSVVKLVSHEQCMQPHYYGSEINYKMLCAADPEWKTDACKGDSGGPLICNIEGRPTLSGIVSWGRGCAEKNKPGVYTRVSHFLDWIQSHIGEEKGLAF
T7 sequence (P06869 21-178 partner limits assumed): as the sequence (P06869 21-178 partner limits assumed) above
In words: Ki for inhibition of muPA-S190A, chromogenic substrate. Format: biochemical, murine. Conditions: means ± S.D.; read-out: K i for inhibition of muPA-S190A.
Text: as §3, §4, §5

The target in the next experiment is T8, muPA wt (Mus musculus, UniProt P06869).
T8 construct: To ensure that the uPAs purified from the conditioned media were completely in the two-chain form, they were treated with plasmin; hexa-His (C); made in house; host or cells: HEK293 6E suspension cells
T8 sequence (P06869 180-433 limits assumed): as the sequence (P06869 180-433 limits assumed) above
T8 sequence (P06869 21-178 partner limits assumed): as the sequence (P06869 21-178 partner limits assumed) above
Conditions: means ± S.D.; starred values reproduced from previous publications; ref Andersen et al., 2008; Hosseini et al., 2011; read-out: K i for inhibition of muPA wt; cited from earlier work.

Another experiment concerns the target T9, muPA Y99A (Mus musculus, UniProt P06869, Y274A).
T9 construct: To ensure that the uPAs purified from the conditioned media were completely in the two-chain form, they were treated with plasmin; hexa-His (C); made in house; host or cells: HEK293 6E suspension cells
In words: Ki for inhibition of muPA-Y99A, chromogenic substrate. Type of experiment: biochemical, murine. Particulars: means ± S.D.; read-out: K i for inhibition of muPA-Y99A.
Text: as §3, §4, §5

For experiment [2], the target named is T1, huPA-H99Y. Particulars: 37°C; means ± S.D.; starred values reproduced from previous publications; ref Andersen et al., 2008; Hosseini et al., 2011; read-out: K i for inhibition of huPA-H99Y; cited from earlier work.
A further experiment concerns the target T10, huPA-H99Y V41A (Homo sapiens, UniProt P00749, H272Y/V208A).
T10 construct: To ensure that the uPAs purified from the conditioned media were completely in the two-chain form, they were treated with plasmin; hexa-His (C); made in house; host or cells: HEK293 6E suspension cells
In words: Ki for inhibition of huPA-H99Y-V41A, chromogenic substrate. Type of experiment: biochemical. Particulars: 37°C; means ± S.D.; read-out: K i for inhibition of huPA-H99Y-V41A.
Text: as §3, §4, §5

The next experiment deals with T11, muPA K41A (Mus musculus, UniProt P06869, K210A).
T11 construct: To ensure that the uPAs purified from the conditioned media were completely in the two-chain form, they were treated with plasmin; hexa-His (C); made in house; host or cells: HEK293 6E suspension cells
T11 sequence (P06869 180-433 K210A): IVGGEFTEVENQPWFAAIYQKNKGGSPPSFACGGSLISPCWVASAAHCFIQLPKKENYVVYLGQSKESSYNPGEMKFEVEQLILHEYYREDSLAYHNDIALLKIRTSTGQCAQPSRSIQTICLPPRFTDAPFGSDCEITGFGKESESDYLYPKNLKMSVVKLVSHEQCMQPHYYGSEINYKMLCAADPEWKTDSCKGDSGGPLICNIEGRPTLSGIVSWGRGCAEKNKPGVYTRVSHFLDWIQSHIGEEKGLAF
T11 sequence (P06869 21-178 partner limits assumed): as the sequence (P06869 21-178 partner limits assumed) above
In words: Ki for inhibition of muPA-K41A, chromogenic substrate. Format: biochemical, murine. Particulars: means ± S.D.; read-out: K i for inhibition of muPA-K41A.
Text: as §3, §4, §5

Like-named read-outs stand apart in the source and are kept apart here. Bridge positions count the residues as written; N and C are the ends. Square brackets hold non-standard residues; d marks the D form. Peptide text beside a SMILES is read from it. Phe(4-guanidino) = N=C(N)Nc1ccc(C[C@H](N)C(=O)O)cc1

T5 sequence (P06869 180-433 K322A): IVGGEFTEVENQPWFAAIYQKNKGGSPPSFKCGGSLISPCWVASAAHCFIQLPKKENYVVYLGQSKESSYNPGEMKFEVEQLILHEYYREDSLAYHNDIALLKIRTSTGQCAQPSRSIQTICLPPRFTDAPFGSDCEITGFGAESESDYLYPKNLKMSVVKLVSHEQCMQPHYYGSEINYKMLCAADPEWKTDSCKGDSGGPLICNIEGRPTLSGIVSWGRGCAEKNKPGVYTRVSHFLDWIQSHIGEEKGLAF
T5 sequence (P06869 21-178 partner limits assumed): as the sequence (P06869 21-178 partner limits assumed) above
T9 sequence (P06869 180-433 Y274A): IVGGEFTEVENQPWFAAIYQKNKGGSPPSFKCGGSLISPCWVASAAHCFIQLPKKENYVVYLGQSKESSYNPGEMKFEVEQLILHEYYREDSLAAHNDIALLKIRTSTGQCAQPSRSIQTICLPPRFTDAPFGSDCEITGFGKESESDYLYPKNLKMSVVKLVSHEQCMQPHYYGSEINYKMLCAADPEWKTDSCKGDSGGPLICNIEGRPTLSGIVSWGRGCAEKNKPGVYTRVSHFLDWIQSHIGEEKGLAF
T9 sequence (P06869 21-178 partner limits assumed): as the sequence (P06869 21-178 partner limits assumed) above

In the case of `CC(=O)N[C@H]1CSSC[C@@H](C(N)=O)NC(=O)[C@H](CC(=O)O)NC(=O)[C@H](CC(C)C)NC(=O)[C@H](Cc2ccc(O)cc2)NC(=O)[C@H](Cc2ccc(NC(=N)N)cc2)NC(=O)[C@H](CO)NC(=O)[C@H](Cc2ccc(O)cc2)NC(=O)[C@H](C)NC(=O)[C@@H]2CCCN2C1=O` [Mupain-1-12, CPAYS[4-guanidino-phenyl-alanine]YLDC] (Ac-CPAYS[Phe(4-guanidino)]YLDC-NH2; disulfide 1-10), the “k off, huPA-H99Y” value at huPA-H99Y [1] (25°C, pH 7.4) was 24.6±1.2 (4) s^-1, ×10^2. On huPA-H99Y [1] (25°C, pH 7.4), the “k on, huPA-H99Y” value is on record as 2.06±0.15 (4) M^-1s^-1, ×10^-5. Also, the Kd at huPA-H99Y [1] (25°C, pH 7.4, calculated as k off/k on, read-out: K D, huPA-H99Y) is 1210 ± 130 nM; at huPA-H99Y [1] (huPA-H99Y immobilized on CM5 chip, single example (S3 Fig), read-out: KD of fitted curve, representative sensorgram), 1320 nM. Also, the koff at huPA-H99Y [1] (huPA-H99Y immobilized on CM5 chip, single example (S3 Fig), read-out: koff of fitted curve, representative sensorgram) was 0.248 s⁻¹. For the same compound, the kon on huPA-H99Y [1] (huPA-H99Y immobilized on CM5 chip, single example (S3 Fig), read-out: kon of fitted curve, representative sensorgram) stood at 188000 M⁻¹ s⁻¹. The “k off, muPA” value at muPA is given as 1.92±0.63 (4) s^−1, ×10^2. Besides, the “k on, muPA” value on muPA is reported as 1.56±0.95 (4) M^−1s^−1, ×10^−5. Besides, the Ki on huPA-H99Y K143A was found to be 2140 ± 780 nM; at huPA-H99Y R35A, 3260 ± 1040 nM; on muPA K143A, 1000 ± 40 nM; on muPA V213T, 86 ± 30 nM; at huPA-H99Y Q192A, 2350 ± 740 nM; at muPA S190A, 2300 ± 460 nM. The Ki at muPA wt is 280 ± 20 nM; on muPA Y99A, 5200 ± 60 nM; at huPA-H99Y [2], 1860 ± 740 nM; at huPA-H99Y V41A, 1600 ± 540 nM; on muPA K41A it was 1720 ± 240 nM.

As a reminder, the koff is a measure of how fast the partners let go of each other. As a reminder, the kon is a measure of how fast the partners come together.
